The source of these data is patent US20260217673A1, “NOVEL COMPOUND AS RON INHIBITOR” (LG CHEM, LTD., priority 2022, published 2026).

One experiment has as its target RON (Homo sapiens, UniProt Q04912). The experiment is described as follows: RON inhibitory activity, TR-FRET kinase assay. The class given is biochemical. The note with it: RON protein, ULight-labeled Poly GT substrate. The method, boiled down:
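RON was preincubated with compound for 20-30 min at room temperature in HEPES buffer (pH 7.4) with MgCl2 and DTT. Phosphorylation of ULight-Poly GT with ATP ran 60 min before EDTA stop. Europium anti-phosphotyrosine TR-FRET (ex 340, em 620/665 nm) was read and IC50 derived from 10-point 3-fold dilutions.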
On the technique in general: In TR-FRET formats the signal depends on donor and acceptor labels being close together.

The next experiment has as its target cMET (Homo sapiens, UniProt P08581). As to the kind of experiment: MET (cMET) enzyme inhibitory activity, TR-FRET kinase assay. Conditions: cMET protein, TK peptide substrate. The class given is biochemical. The method, boiled down: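 cMET diluted to 2 nM was preincubated 20–30 min at room temperature with compound (10-point 3-fold series from 1 mM DMSO stock). The reaction was started with TK peptide/ATP substrate mix prepared at 2× final (5 μM peptide, 10 mM ATP), run 60 min at room temperature in HEPES pH 7.4 buffer with MnCl2/MgCl2, then EDTA-stopped. Europium anti-phosphotyrosine TR-FRET (ex 340, em 620/665 nm) gave IC50.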

cMET, sequence (P08581 25-1390): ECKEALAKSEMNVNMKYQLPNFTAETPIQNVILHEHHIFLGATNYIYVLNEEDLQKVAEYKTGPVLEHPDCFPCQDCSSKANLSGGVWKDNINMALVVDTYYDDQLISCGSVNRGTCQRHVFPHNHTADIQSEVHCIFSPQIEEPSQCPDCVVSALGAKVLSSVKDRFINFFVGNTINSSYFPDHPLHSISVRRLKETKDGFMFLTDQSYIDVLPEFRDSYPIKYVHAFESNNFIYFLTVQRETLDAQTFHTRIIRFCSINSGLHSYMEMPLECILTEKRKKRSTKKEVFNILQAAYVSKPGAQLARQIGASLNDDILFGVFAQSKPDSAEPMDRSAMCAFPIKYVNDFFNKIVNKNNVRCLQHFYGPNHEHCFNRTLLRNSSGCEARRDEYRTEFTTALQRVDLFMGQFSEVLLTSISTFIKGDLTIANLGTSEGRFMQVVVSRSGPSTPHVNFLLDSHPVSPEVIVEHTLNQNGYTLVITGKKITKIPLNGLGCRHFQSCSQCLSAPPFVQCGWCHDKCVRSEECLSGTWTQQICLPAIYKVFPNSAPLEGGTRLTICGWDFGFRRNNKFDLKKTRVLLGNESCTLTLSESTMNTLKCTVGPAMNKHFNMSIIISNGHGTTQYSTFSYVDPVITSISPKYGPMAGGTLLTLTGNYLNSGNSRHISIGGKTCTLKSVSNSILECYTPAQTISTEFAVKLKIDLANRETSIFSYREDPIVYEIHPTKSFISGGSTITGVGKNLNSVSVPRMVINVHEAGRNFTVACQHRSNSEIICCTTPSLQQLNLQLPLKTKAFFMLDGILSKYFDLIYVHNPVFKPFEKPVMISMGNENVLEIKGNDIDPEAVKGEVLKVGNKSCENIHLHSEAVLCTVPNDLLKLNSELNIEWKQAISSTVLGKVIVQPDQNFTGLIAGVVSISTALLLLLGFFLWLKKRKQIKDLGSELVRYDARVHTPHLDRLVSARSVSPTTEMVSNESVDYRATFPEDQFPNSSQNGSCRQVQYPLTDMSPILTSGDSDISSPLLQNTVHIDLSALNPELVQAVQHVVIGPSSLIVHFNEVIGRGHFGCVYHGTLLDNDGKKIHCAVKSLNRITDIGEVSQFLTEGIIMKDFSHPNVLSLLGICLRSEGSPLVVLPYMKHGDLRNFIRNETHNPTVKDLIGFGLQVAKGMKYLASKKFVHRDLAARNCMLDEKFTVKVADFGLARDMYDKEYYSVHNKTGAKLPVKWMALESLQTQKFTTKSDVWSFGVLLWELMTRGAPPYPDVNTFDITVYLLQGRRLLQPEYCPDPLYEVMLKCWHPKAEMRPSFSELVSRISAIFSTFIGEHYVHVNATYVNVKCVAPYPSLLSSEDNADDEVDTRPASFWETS
RON, sequence (Q04912 25-1400, species assumed): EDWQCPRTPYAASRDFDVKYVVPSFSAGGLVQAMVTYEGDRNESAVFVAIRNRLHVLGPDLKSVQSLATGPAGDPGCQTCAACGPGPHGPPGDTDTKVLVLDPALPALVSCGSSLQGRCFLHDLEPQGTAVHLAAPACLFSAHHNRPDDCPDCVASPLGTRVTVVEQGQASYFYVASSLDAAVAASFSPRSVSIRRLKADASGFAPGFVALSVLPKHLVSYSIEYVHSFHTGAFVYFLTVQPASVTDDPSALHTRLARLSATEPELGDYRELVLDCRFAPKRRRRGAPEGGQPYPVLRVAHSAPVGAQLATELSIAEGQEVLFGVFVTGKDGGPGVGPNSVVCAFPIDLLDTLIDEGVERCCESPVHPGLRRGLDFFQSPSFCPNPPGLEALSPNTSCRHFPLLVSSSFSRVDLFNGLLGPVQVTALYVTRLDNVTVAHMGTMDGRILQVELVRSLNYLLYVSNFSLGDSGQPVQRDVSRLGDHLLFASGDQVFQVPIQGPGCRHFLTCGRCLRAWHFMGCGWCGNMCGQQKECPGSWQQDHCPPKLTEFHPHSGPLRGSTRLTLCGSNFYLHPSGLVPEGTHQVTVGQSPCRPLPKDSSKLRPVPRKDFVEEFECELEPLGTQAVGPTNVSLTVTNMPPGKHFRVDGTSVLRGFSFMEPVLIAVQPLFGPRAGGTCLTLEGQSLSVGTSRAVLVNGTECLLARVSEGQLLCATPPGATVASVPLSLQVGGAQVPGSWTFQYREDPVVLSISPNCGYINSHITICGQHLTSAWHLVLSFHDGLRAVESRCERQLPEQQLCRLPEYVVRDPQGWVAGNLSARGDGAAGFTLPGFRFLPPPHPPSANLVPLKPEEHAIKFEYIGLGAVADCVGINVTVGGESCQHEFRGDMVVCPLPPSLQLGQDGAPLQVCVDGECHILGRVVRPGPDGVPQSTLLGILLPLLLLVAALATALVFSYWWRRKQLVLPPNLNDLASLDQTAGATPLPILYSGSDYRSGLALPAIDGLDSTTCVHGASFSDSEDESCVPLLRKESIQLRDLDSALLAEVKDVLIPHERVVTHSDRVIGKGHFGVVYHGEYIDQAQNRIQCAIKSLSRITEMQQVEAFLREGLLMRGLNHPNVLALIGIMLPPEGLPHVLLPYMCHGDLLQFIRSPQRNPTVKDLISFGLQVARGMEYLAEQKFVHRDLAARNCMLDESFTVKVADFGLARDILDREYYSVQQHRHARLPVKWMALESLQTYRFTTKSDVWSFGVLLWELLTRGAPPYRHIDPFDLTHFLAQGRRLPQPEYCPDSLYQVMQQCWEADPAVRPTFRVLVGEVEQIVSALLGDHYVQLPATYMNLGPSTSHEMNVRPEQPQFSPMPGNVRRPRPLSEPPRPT

For orientation: IC50 means the concentration that gives 50% inhibition. A lower IC50 goes with greater potency in that assay. On to `Nc1nccc(Oc2c(F)cc(NC(=O)c3cnn(-c4cccnn4)c3C(F)(F)F)cc2F)c1C#CCO` [Example 56, N-(4-((2-amino-3-(3-hydroxyprop-1-yn-1-yl)pyridin-4-yl)oxy)-3,5-difluorophenyl)-1-(pyridazin-3-yl)-5-(trifluoromethyl)-1H-pyrazole-4-carboxamide], for which the IC50 against RON is below 0.05 µM; on cMET it was 0.05 to 0.5 µM.
Take `CC(O)C#Cc1c(Oc2c(F)cc(NC(=O)c3cnn(-c4ncccc4F)c3C(F)(F)F)cc2F)ccnc1N` (stereo not drawn) [Example 57, N-(4-((2-amino-3-(3-hydroxybut-1-yn-1-yl)pyridin-4-yl)oxy)-3,5-difluorophenyl)-1-(3-fluoropyridin-2-yl)-5-(trifluoromethyl)-1H-pyrazole-4-carboxamide]: the IC50 against RON is below 0.05 µM; at cMET, 0.05 to 0.5 µM.
Consider `CC(C)(O)C#Cc1c(Oc2c(F)cc(NC(=O)c3cnn(-c4ncccc4F)c3C(F)(F)F)cc2F)ccnc1N` [Example 58, N-(4-((2-amino-3-(3-hydroxy-3-methylbut-1-yn-1-yl)pyridin-4-yl)oxy)-3,5-difluorophenyl)-1-(3-fluoropyridin-2-yl)-5-(trifluoromethyl)-1H-pyrazole-4-carboxamide], for which the results for the IC50 on RON and at cMET were below 0.05 µM and 0.05 to 0.5 µM, respectively.
Take `COCCCN1CCC(n2ncc(C(=O)Nc3cc(F)c(Oc4ccnc(N)c4Cl)c(F)c3)c2C(F)(F)F)CC1` [Example 59, N-(4-((2-amino-3-chloropyridin-4-yl)oxy)-3,5-difluorophenyl)-1-(1-(3-methoxypropyl)piperidin-4-yl)-5-(trifluoromethyl)-1H-pyrazole-4-carboxamide]: the values for the IC50 on RON and against cMET were 0.5 to 5 µM and above 5 µM, respectively.
As for `CCOCC(=O)N1CCC(n2ncc(C(=O)Nc3cc(F)c(Oc4ccnc(N)c4Cl)c(F)c3)c2C(F)(F)F)CC1` [Example 60, N-(4-((2-amino-3-chloropyridin-4-yl)oxy)-3,5-difluorophenyl)-1-(1-(2-ethoxyacetyl)piperidin-4-yl)-5-(trifluoromethyl)-1H-pyrazole-4-carboxamide], the IC50 on RON and against cMET was 0.5 to 5 µM in each case.
On to `COCCCn1ncc(C(=O)Nc2cc(F)c(Oc3ccnc(N)c3Cl)c(F)c2)c1C(F)(F)F` [Example 61, N-[4-[(2-amino-3-chloro-4-pyridyl)oxy]-3,5-difluoro-phenyl]-1-(3-methoxypropyl)-5-(trifluoromethyl)pyrazole-4-carboxamide], for which the IC50 against RON fell in the range of 0.05 to 0.5 µM; against cMET, 0.5 to 5 µM.
